# Assays:
# [1] = target: T1, Aldehyde dehydrogenase 1A1 (Homo sapiens, UniProt P00352); test: Uncompetitive inhibition of full length recombinant human ALDH1A1 expressed in Escherichia coli BL21(DE3) using propionaldehyde as substrate in presence of varying levels NAD+ by Lineweaver-Burk plot analysis
# T1 sequence (P00352 whole entry): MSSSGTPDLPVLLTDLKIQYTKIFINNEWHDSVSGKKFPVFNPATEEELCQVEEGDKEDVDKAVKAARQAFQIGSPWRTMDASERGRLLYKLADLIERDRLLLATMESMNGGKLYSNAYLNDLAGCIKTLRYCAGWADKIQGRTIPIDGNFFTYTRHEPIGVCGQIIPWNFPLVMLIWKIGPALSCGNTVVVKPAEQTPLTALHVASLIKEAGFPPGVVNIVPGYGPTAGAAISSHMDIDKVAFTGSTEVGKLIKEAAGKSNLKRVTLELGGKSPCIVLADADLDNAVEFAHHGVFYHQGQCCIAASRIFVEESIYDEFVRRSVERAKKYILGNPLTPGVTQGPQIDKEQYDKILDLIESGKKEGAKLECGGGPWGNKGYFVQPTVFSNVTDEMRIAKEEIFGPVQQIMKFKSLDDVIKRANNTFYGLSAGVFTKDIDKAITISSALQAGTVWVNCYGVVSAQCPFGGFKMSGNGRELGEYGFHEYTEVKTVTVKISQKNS
# [2] = target: T2, Retinal dehydrogenase 2 (Homo sapiens) (UniProt O94788); test: (§1) Inhibition of full length recombinant human ALDH1A2 expressed in Escherichia coli BL21(DE3) assessed as reduction in dehydrogenase activity by measuring NAD(P)H level preincubated for 2 mins followed by addition of propionaldehyde as substrate in presence of NAD+ by spectrophotometric method relative to control
# T2 sequence (whole entry): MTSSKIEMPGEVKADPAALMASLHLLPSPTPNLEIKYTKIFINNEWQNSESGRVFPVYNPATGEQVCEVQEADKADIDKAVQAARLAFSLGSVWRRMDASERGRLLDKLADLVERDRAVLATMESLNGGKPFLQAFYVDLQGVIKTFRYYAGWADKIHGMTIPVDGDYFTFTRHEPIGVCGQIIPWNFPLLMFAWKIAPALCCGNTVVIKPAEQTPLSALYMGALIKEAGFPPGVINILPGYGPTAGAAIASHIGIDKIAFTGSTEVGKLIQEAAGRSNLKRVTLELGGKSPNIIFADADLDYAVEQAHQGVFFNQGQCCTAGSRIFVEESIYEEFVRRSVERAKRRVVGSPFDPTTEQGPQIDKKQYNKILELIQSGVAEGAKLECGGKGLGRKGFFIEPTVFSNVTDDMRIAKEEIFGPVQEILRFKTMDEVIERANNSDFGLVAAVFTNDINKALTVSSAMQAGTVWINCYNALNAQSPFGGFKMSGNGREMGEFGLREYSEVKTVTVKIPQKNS
# [3] = target: T3, Aldehyde dehydrogenase X, mitochondrial (Homo sapiens) (UniProt P30837); test: as §1, with “ALDH1B1” for “ALDH1A2”, “TunerDE3” for “BL21(DE3)”
# T3 sequence (whole entry): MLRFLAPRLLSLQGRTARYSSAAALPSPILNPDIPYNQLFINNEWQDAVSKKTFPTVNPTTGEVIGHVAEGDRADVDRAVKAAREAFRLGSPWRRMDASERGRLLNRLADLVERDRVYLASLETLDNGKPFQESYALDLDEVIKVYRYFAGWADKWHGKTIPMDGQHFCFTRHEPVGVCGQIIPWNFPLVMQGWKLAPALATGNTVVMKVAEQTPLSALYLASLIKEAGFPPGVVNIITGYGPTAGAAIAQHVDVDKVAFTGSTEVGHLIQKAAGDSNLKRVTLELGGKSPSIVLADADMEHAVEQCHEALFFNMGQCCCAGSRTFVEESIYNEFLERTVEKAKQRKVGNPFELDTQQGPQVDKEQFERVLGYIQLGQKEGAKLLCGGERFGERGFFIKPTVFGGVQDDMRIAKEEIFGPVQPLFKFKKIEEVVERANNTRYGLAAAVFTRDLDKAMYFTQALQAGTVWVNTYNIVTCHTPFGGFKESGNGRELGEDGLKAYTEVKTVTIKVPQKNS
# [4] = target: T4, Retinaldehyde dehydrogenase 3 (Homo sapiens, UniProt P47895); test: Activation of full length recombinant human ALDH1A3 expressed in Escherichia coli BL21(DE3) preincubated for 2 mins followed by addition of propionaldehyde as substrate in presence of NAD+ by spectrophotometric method
# T4 sequence (P47895 whole entry): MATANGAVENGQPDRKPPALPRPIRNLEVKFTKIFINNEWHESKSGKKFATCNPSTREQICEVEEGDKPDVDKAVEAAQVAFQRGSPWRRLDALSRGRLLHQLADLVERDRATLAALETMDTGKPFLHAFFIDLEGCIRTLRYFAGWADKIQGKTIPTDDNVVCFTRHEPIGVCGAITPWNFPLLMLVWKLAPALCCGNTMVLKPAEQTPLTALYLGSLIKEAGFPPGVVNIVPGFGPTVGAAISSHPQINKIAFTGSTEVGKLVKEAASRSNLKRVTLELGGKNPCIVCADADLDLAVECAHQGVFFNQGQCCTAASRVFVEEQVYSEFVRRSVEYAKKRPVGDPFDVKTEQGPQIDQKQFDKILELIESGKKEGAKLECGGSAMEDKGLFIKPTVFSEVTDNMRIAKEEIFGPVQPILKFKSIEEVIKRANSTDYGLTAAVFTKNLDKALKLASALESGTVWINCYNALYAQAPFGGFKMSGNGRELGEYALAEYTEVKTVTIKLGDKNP
# [5] = target: T5, Retinal dehydrogenase 2 (Homo sapiens, UniProt O94788)
# T5 sequence (O94788 whole entry): T2 sequence (whole entry)
# [6] = target: T6, Aldehyde dehydrogenase X, mitochondrial (Homo sapiens, UniProt P30837)
# T6 sequence (P30837 whole entry): T3 sequence (whole entry)
# Description: Inhibition of full length recombinant human ALDH1B1 expressed in Escherichia coli TunerDE3 assessed as reduction in dehydrogenase activity by measuring NAD(P)H level preincubated for 2 mins followed by addition of propionaldehyde as substrate in presence of NAD+ by spectrophotometric method
# [7] = target: T7, Retinaldehyde dehydrogenase 3 (Homo sapiens) (UniProt P47895); test: as §1, with “ALDH1A3” for “ALDH1A2”
# T7 sequence (whole entry): T4 sequence (P47895 whole entry)
# [8] = target: T4, Retinaldehyde dehydrogenase 3
# Description: Inhibition of full length recombinant human ALDH1A3 expressed in Escherichia coli BL21(DE3) assessed as reduction in dehydrogenase activity by measuring NAD(P)H level preincubated for 2 mins followed by addition of propionaldehyde as substrate in presence of NAD+ by spectrophotometric method
SMILES,AC50 [4] [nM],IC50 [5],IC50 [6],further results
Cc1oc2cc3oc(=O)c(CCC(=O)N4CCCCC4)c(C)c3cc2c1C,,,,Ki [1]: 170 nM
Cc1oc2cc3oc(=O)c(C)c(C)c3cc2c1C,,,,Imax [2]: 60%; Imax [3]: 60%
CCCc1cc(=O)oc2cc3oc(C)c(C)c3cc12,870,,,
C/C(=N\O)c1cc2cc(Br)ccc2oc1=O,35000,Not Active,Not Active,
Cc1oc2cc3oc(=O)c4c(c3cc2c1C)CCC4,,,,Imax [7]: 50 to 60%
COC(=O)C(C)Oc1ccc2c(C)cc(=O)oc2c1 (stereo unspecified),,Not Active,Not Active,IC50 [8]: Not Active

# — ChEMBL document CHEMBL4007427, “Inhibition of the Aldehyde Dehydrogenase 1/2 Family by Psoralen and Coumarin Derivatives” (J Med Chem, 2017)
